Experimental data reported in patent publication US9227977B2, “Phosphoinositide 3-kinase inhibitors” (RESPIVERT LTD., priority 2013, dated 2016).
Where two headings read alike, the source gives them in different places.

Target: PI3K β (Homo sapiens (Human), UniProt P42338)
Assay: PI3K enzyme inhibition assay (HTRF TR-FRET)
Assay type: biochemical
Excerpt: The PI3K enzymes catalyse the phosphorylation of phosphatidylinositol 4,5-biphosphate (PIP2) to phosphatidylinositol 3,4,5-triphosphate (PIP3) in the presence of ATP and Mg^2+ ions. The PIP3 product can be detected by displacement of biotin-PIP3 from energy transfer complexes consisting of europium labelled anti-GST monoclonal antibody, a GST-tagged Pleckstrin homology (PH) domain, biotinylated PIP3 and streptavidin-allophycocyanin (APC) by the time-resolved fluorescence resonance energy transfer (TR-FRET) (HTRF®PI3K enzyme assay, Millipore). Excitation, at 330 nm, of europium in the complex results in an energy transfer to the APC and a fluorescent emission at 665 nm although europium itself emits at its characteristic wavelength of 620 nm. The PIP3 product formed by PI3K activity displaces biotin-PIP3 from the complex and results in a loss of energy transfer (decreasing signal).
The compound to be tested was added, at the desired final concentrations, to a mixture of PIP2 substrate and a recombinant PI3K enzyme (either α, β or δ isoforms, ex Millipore, or γ isoform [p110γ+p101 construct], ex United States Biological, Swampscott, Mass.) and the mixture incubated for 2 hr at RT. Following this incubation period, ATP (10 μM) was added to the enzyme/compound/PIP2 substrate mixture and the resulting mixture was incubated for a further 30 min at RT. A stopping solution containing biotinylated PIP3 and the detection mix containing the GST tagged GRP1 pleckstrin homology (PH) domain and fluorophores were then added and the mixture was incubated at RT for 15-18 hr, prior to detection in a fluorescence microplate reader (Synergy 4, BioTek UK, Bedfordshire, UK).
The results were calculated according to the formula: APC signal (emission at 665 nm)/europium signal (emission at 620 nm)×10^4. The percentage inhibition of each reaction was calculated relative to DMSO treated control, and the 50% inhibitory concentration (IC50 value) then calculated from the concentration-response curve.

PI3K β, sequence (P42338 whole entry, species assumed): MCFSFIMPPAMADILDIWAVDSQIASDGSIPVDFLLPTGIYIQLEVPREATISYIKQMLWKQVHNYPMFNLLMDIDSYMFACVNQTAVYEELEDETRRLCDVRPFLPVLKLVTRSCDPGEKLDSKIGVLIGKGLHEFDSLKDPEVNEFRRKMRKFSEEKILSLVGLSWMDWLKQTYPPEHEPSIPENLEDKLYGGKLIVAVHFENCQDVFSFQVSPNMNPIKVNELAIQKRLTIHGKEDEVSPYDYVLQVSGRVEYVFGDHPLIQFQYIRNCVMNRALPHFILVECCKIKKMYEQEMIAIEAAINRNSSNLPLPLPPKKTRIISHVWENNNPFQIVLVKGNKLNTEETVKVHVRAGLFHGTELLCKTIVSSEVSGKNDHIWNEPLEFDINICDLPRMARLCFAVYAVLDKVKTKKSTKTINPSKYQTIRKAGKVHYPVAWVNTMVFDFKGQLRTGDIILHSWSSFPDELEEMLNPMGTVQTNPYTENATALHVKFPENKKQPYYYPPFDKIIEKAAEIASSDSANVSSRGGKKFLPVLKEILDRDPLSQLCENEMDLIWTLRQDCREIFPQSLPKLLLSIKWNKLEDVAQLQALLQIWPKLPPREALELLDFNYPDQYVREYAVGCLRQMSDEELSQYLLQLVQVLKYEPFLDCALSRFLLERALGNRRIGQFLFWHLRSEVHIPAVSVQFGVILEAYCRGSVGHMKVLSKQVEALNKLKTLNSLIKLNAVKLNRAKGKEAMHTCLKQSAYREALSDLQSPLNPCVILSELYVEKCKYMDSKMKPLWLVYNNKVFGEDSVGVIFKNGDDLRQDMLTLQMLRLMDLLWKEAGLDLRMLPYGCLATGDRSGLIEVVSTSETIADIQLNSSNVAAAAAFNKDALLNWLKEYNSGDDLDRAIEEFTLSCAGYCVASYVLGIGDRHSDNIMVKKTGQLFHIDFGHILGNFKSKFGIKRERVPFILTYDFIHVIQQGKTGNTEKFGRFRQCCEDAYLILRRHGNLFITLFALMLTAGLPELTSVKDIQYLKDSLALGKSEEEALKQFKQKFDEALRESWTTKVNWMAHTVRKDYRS
PI3K β, sequence (P27986 whole entry partner, species assumed): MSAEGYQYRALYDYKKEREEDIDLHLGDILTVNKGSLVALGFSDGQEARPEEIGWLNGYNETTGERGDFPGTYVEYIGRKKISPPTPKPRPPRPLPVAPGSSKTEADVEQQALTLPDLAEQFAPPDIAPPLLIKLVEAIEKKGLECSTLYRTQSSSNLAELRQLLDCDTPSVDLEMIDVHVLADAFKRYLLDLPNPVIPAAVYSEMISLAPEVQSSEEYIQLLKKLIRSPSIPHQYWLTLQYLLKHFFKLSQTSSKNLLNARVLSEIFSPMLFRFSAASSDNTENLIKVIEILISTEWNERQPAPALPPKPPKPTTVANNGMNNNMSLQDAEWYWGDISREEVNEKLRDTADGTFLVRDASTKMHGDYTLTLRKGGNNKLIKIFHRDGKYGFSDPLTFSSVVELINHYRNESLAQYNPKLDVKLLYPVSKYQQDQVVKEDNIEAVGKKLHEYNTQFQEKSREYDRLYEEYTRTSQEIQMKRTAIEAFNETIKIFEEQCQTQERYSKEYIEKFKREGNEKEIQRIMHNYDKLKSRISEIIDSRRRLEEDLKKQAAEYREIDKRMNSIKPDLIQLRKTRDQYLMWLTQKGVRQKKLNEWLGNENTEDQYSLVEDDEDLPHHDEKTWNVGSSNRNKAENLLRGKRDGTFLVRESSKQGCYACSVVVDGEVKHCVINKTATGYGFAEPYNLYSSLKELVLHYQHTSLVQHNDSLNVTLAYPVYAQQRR

COCCOCCOCC#Cc1cccc2nc(Cn3nc(-c4cc(O)cc(F)c4)c4c(N)ncnc43)n(Cc3ccccc3C(F)(F)F)c(=O)c12 [Compound (I), 2-((4-Amino-3-(3-fluoro-5-hydroxyphenyl)-1H-pyrazolo[3,4-d]pyrimidin-1-yl)methyl)-5-(3-(2-(2-methoxyethoxy)ethoxy)prop-1-yn-1-yl)-3-(2-(trifluoromethyl)benzyl)quinazolin-4(3H)-one]
inhibitory activity versus PI3K β in enzyme assays (in words): low inhibitory activity
IC50 (read-out: IC50 Values for PI3K inhibition at isozyme indicated, PI3K β): 4.89 µM
IC50 (read-out: PI3 Kinase Inhibition IC50 value at state isozyme, β): 4.89 µM
